Assay results published in ChEMBL document CHEMBL1142756, “Total synthesis and antiangiogenic activity of cyclopentane analogues of fumagillol” (Bioorg Med Chem Lett, 2005).
≈ marks a conversion by molar mass, not a printed value.

Columns and labels:
Format in all cases: functional, cell-based
P388 = assay: Inhibitory concentration against Murine leukemia P388 measured for endothelial cell proliferation activity; conditions: Mus musculus
[1] = Inhibitory concentration against Calf pulmonary artery endothelial cells (CPAE) measured for endothelial cell proliferation activity; conditions: Bos taurus
[2] = Inhibitory concentration against Lymphoma EC4 cells measured for endothelial cell proliferation activity; conditions: Homo sapiens

| IC50 (P388) | Structure (SMILES) | IC50 [1] | IC50 [2] |
| --- | --- | --- | --- |
| ≥ 10 µg/mL | CO[C@@H]1[C@H](OC(=O)NC(=O)CCl)C[C@]2(CO2)[C@H]1[C@]1(C)O[C@H]1CCC(C)C | 0.57 µg/mL (≈ 1.46 µM) | 1.1 µg/mL (≈ 2.82 µM) |
| ≥ 10 µg/mL | CO[C@@H]1[C@H](OC(=O)NC(=O)CCl)C[C@]2(CO2)[C@H]1[C@@]1(C)O[C@@H]1CCC(C)C | 0.088 µg/mL (≈ 0.226 µM) | 0.3 µg/mL (≈ 0.769 µM) |
| ≥ 10 µg/mL | CO[C@@H]1[C@H](OC(=O)/C=C/C=C/C=C/C=C/C(=O)O)CC[C@]2(CO2)[C@H]1[C@@]1(C)OC1CC=C(C)C (single isomer, unassigned) [FUMAGILLIN] | 0.003 µg/mL (≈ 0.00654 µM) | 0.0016 µg/mL (≈ 0.00349 µM) |

| Structure (SMILES) | IC50 (P388) | IC50 [1] | IC50 [2] |
| --- | --- | --- | --- |
| CO[C@@H]1[C@H](OC(=O)NC(=O)CCl)CC[C@]2(CO2)[C@H]1[C@@]1(C)OC1CC=C(C)C (single isomer, unassigned) [O-CHLOROACETYLCARBAMOYLFUMAGILLOL] | ≥ 10 µg/mL | 0.0002 µg/mL (≈ 0.000498 µM) | 0.0038 µg/mL (≈ 0.00946 µM) |
